Values of other authors in patent publication US6717017B2, “Total synthesis of antitumor acylfulvenes” (The Regents of the University of California, priority 1996, dated 2004).

Legend:
[1] = system: breast (MX-1)
[2] = system: colon (HT-29)
[3] = system: MV 522 metastatic lung carcinoma xenografts; conditions: MV 522 metastatic lung carcinoma xenografts in nude mice
[4] = system: skin cancers; conditions: in vivo

In the case of `CC1=C(CO)C2=C(C)C3(CC3)[C@@](C)(O)C(=O)C2=C1` [HMAF, hydroxymethylacylfulvene], the “activity against breast (MX-1) cancer” value [1] is listed as “outstanding activity”, the “activity against colon (HT-29) cancer” value [2] is listed as “outstanding activity” and the tumor regression [3] is listed as “complete tumor regression was observed in all animals”. For the same compound, the “activity against skin cancers” value [4] was “outstanding activity”.
